± gives the expanded uncertainty stated by the source.
Columns and labels:
[1] = xn = mol fraction of the nth substance listed; settings: 298.15 K, 101 kPa, Liquid
[2] = refractive index (Na D-line) (dimensionless); xn = mol fraction of the nth substance listed; settings: 298.15 K, 101 kPa, Liquid, Standard Abbe refractometry
[3] = Vibrating tube method, x1 = 0.2
[4] = Vibrating tube method, x1 = 0.25
[5] = Vibrating tube method, x1 = 0.16

## OCCCCO [1,4-butanediol] + C[N+](C)(C)CCO.[Cl-]
[1]; vibrating tube, x2 = 0.25
  mass density: 1061 ± 12 kg/m3
[1]; vibrating tube, x2 = 0.28
  mass density: 1067 ± 12 kg/m3
[1]; vibrating tube, x2 = 0.34
  mass density: 1073.1 ± 12 kg/m3
[2]; x2 = 0.25
  refractive index: 1.4656 ± 0.0011
[2]; x2 = 0.28
  refractive index: 1.468 ± 0.0011
[2]; x2 = 0.34
  refractive index: 1.4718 ± 0.0011

## CCN(CC)CCO.Cl [2-(diethylamino)ethanol hydrochloride] + OCC(O)CO
[1]; vibrating tube, x1 = 0.2
  mass density: 1220.4 ± 12 kg/m3
[1]; vibrating tube, x1 = 0.25
  mass density: 1205.7 ± 12 kg/m3
[1]; vibrating tube, x1 = 0.34
  mass density: 1183.6 ± 12 kg/m3
[2]; x2 = 0.2
  refractive index: 1.4812 ± 0.0011
[2]; x2 = 0.25
  refractive index: 1.4825 ± 0.0011
[2]; x2 = 0.34
  refractive index: 1.4853 ± 0.0011

## CCN(CC)CCO.Cl [2-(diethylamino)ethanol hydrochloride] + OCCO
[1]; [3]
  mass density: 1103.7 ± 12 kg/m3
[1]; [4]
  mass density: 1101.8 ± 12 kg/m3
[1]; Vibrating tube method, x1 = 0.28
  mass density: 1100.6 ± 12 kg/m3
[2]; x1 = 0.2
  refractive index: 1.4574 ± 0.0011
[2]; x1 = 0.25
  refractive index: 1.462 ± 0.0011
[2]; x1 = 0.28
  refractive index: 1.465 ± 0.0011

## C[N+](C)(C)CCO.[Cl-] [choline chloride] + OCC(O)CO
[1]; vibrating tube, x1 = 0.25
  mass density: 1203.5 ± 12 kg/m3
[1]; vibrating tube, x1 = 0.34
  mass density: 1192.4 ± 12 kg/m3
[1]; vibrating tube, x1 = 0.5
  mass density: 1162.2 ± 12 kg/m3
[2]; x1 = 0.25
  refractive index: 1.4818 ± 0.0011
[2]; x1 = 0.34
  refractive index: 1.4852 ± 0.0011
[2]; x1 = 0.5
  refractive index: 1.491 ± 0.0011

## C[N+](C)(C)CCO.[Cl-] [choline chloride] + OCCO
[1]; vibrating tube, x1 = 0.28
  mass density: 1117.3 ± 12 kg/m3
[1]; vibrating tube, x1 = 0.34
  mass density: 1117.7 ± 12 kg/m3
[1]; vibrating tube, x1 = 0.36
  mass density: 1118.4 ± 12 kg/m3
[2]; x1 = 0.28
  refractive index: 1.4611 ± 0.0011
[2]; x1 = 0.34
  refractive index: 1.465 ± 0.0011
[2]; x1 = 0.36
  refractive index: 1.4678 ± 0.0011

## C[P+](c1ccccc1)(c1ccccc1)c1ccccc1.[Br-] [methyltriphenylphosphonium bromide] + OCC(O)CO
[1]; [3]
  mass density: 1289.3 ± 12 kg/m3
[1]; [4]
  mass density: 1298 ± 12 kg/m3
[1]; Vibrating tube method, x1 = 0.34
  mass density: 1307.1 ± 12 kg/m3
[2]; x1 = 0.2
  refractive index: 1.5597 ± 0.0011
[2]; x1 = 0.25
  refractive index: 1.5715 ± 0.0011
[2]; x1 = 0.34
  refractive index: 1.5917 ± 0.0011

## C[P+](c1ccccc1)(c1ccccc1)c1ccccc1.[Br-] [methyltriphenylphosphonium bromide] + OCCO
[1]; [5]
  mass density: 1220.2 ± 12 kg/m3
[1]; [3]
  mass density: 1233 ± 12 kg/m3
[1]; [4]
  mass density: 1250.4 ± 12 kg/m3
[2]; x1 = 0.16
  refractive index: 1.5398 ± 0.0011
[2]; x1 = 0.2
  refractive index: 1.553 ± 0.0011
[2]; x1 = 0.25
  refractive index: 1.5678 ± 0.0011

## C[P+](c1ccccc1)(c1ccccc1)c1ccccc1.[Br-] [methyltriphenylphosphonium bromide] + OCCOCCOCCO
[1]; [5]
  mass density: 1186 ± 12 kg/m3
[1]; [3]
  mass density: 1199.2 ± 12 kg/m3
[1]; [4]
  mass density: 1216.4 ± 12 kg/m3
[2]; x1 = 0.16
  refractive index: 1.5178 ± 0.0011
[2]; x1 = 0.2
  refractive index: 1.5263 ± 0.0011
[2]; x1 = 0.25
  refractive index: 1.5417 ± 0.0011
